Among the data in a melting point compilation (Tetko et al.; mined from patent text by program, amines drawn as free bases though some values may be those of a salt) are melting point values, retold here.

The compound `CCc1nc2c(N)nc3ccccc3c2n1CC#Cc1cccc(C(F)(F)F)c1` had a melting point of 202 to 204 °C.
For the compound `COC(=O)CC(Cc1ccccc1)C(=O)N[C@@H](Cc1ccccc1)C(=O)O` (some centres undefined), the melting point is 100 to 104 °C.
For the compound `N#Cc1c[nH]cc1-c1ccc(Cl)cc1`, the melting point was 147 to 148 °C.
The result for `O=C(O)[C@@H](CCN1Cc2ccccc2C1=O)Oc1c(Br)cc(-c2c3ccccc3c(Br)c3sc4ccccc4c23)cc1Br` reads 239 to 241 °C.
`CCCCCCCCCCCCCCCCCNC(=O)OCCOCCOC(=O)N(Cc1ccccn1)C(C)=O` came in with a melting point of 60 to 61 °C.
With `CC1N=C(NN2CCCCC2)NN=C1c1ccccc1` (centres undefined) the figure was 188 to 190 °C; with `COC(=O)c1[nH]c2c(C)ccc(C)c2c1NC(C)=O`, 221 to 222 °C; with `CCCCC[C@H]1CC[C@H](c2ccc(C(N)=O)cc2)CC1`, 234 to 235 °C.
With `COC(=O)C1=C(C)NC(C)=C(C(=O)OCCN2CCN(C(c3ccc(C)cc3)c3ccc(C)cc3)CC2)C1c1cccc([N+](=O)[O-])c1` (centres undefined) the figure was 83 to 87 °C; with `CCN(CC)CCCNc1nnc(-c2ccc(F)c(F)c2Nc2ccc(I)cc2F)o1`, 116 to 118 °C.
`C#CCOc1ncc(F)cc1OC` gave a melting point of 67 to 69 °C.
`CCCn1c(=S)sc2c(=N)n(NC(=O)c3ccco3)cnc21` showed a melting point of 206 °C.
With `O=C(Nc1cccc(OCCCN2CCOCC2)c1)C12CC3CC(CC(C3)C1)C2` the figure was 160 to 164 °C; with `COc1cccc2c1SCC(=O)C2`, 60 °C; with `Cc1cn2ccc(NC(=O)C(F)(F)F)c(I)c2n1`, 168 °C.
Regarding `O=C(CNc1ccc2[nH]c(=O)oc2c1)N1CCC(Cc2ccccc2)CC1`, the melting point lay in the range of 204 to 206 °C.
The result for `OCCNc1nc(N2CCNCC2)nc2c1SCCC2` reads 116 to 120 °C; that for `CCCN(CCc1c[nH]c2ccc(F)cc12)C1COc2ccc3ncccc3c2C1` (centres undefined), 67 °C; that for `COC(=O)c1ccc(S(C)(=O)=O)c(C2=NOC(C)(OC)C2)c1Cl` (centres undefined), 100 to 105 °C.
As for `Cc1nc[nH]c(=O)c1Cc1ccccc1`, the melting point was in the range of 140 to 142 °C.
The result for `CCC1CC2(C)C(O)CCC2C2CCc3cccc(O)c3C12` (centres undefined) reads 155 to 157 °C.
With `Cc1cc(C)c2c(-c3ccc(C(C)C)cc3)coc2c1` the figure was 44 to 45 °C; with `CSc1ncccc1C(=O)CC(=O)C1CC1`, 87 to 89 °C; with `CC(C)c1cc(-c2ccncc2)c(-c2ccc(F)cc2)n1CCC1CC(O)CC(=O)O1` (centres undefined), 174 to 176 °C.
With `N#CC(Br)c1ccc(Cl)cc1` (centres undefined) the figure was 46 to 49 °C; with `Cc1cc(NSc2ccccc2[N+](=O)[O-])ccc1Oc1ncc(Cl)cn1`, 74 to 85 °C.
On to `O=C(NC1CCCCC1)c1ccccc1I`, for which the melting point fell in the range of 148 to 149 °C.
The compound `NC(=O)Nc1nc2n(n1)Cc1ccccc1-2` displayed a melting point of 261 to 263 °C.
For `CCN1C(=O)C(C)(C)C(=O)N(C)c2cc(CN(CCn3ccc4oc(C)cc4c3=O)Cc3ccc(OC)nc3C)ccc21`, the melting point fell in the range of 155 to 156 °C.
In the case of `COc1ccc(-c2cc(C)c(C(=O)O)c(C)c2)cc1OC`, the melting point was in the range of 175 to 176 °C.
With `CSCc1c[nH]c(=O)[nH]c1=O` the figure was 239 to 241 °C.
In the case of `CC1(C(O)(COc2ccc(Cl)cc2)Cn2cncn2)CC1(F)F` (centres undefined), the melting point stood at 110 °C.
As to `Nc1ccc(CCC(=O)N(c2ccccc2)c2ccccc2)cc1[N+](=O)[O-]`, the melting point was in the range of 189 to 190 °C.
With `CC1(C)CC(=O)c2c(Cc3ccccc3)cn(-c3ccccn3)c2C1` the figure was 111 to 113 °C.
In the case of `CCCc1c(OCCCCC(=O)NCCCCc2cccnc2)ccc(C(C)=O)c1O`, the melting point was in the range of 76 to 78 °C.
The result for `COC(=O)Cc1ccccc1OCc1ccc(OCc2nc(-c3ccccc3)sc2C)nc1` reads 119 to 120 °C; that for `CC=Cc1cccc2c1OC(c1ccccc1)CC2=O` (centres undefined), below 50 °C.
`CCC(=O)N1N=C(c2ccc(N)c(C)c2)c2cc3c(cc2C[C@@H]1C)OCO3` registered a melting point of 176 to 178 °C.
Turning to `CN1CC(C(=O)N(C)Cc2ccc(C(F)(F)F)cc2)=C(O)C1=O`, the melting point lay in the range of 126 to 128 °C.
`Cc1ccnc(Sc2nc(-c3ccc(Cl)cc3)c(CCC(=O)O)o2)n1` came in with a melting point of 174 to 175 °C.
As for `Nc1ccccc1C(=O)CCCO`, the melting point lay within 58 to 61 °C.
The result for `COc1ccccc1NC(=O)Nc1ccc(CC(=O)O)cc1OC` reads 182 to 185 °C; that for `CC(C)(C)[Si](C)(C)N1C(=O)CC1C(=O)NC(Cc1c[nH]c2ccccc12)C(=O)OCc1ccccc1` (centres undefined), 60 to 65 °C; that for `COc1ncc(Cc2nnc(Nc3ccc(C(C)(C)C)cc3)c3ccccc23)cc1-c1ccco1`, 180 to 182 °C.
The result for `CN(C)C(=S)n1cnc(S(=O)(=O)CC2CCCC2)n1` reads 65 °C; that for `O=C(C=Cc1cccnc1)NCCCCC1CCN(C(=O)c2ccccc2)CC1`, 100 to 102 °C.
The result for `CCOc1cc(Cc2cnc(N)nc2N)cc2c1OC(C)(C)C=C2C(C)(C)O` reads 209 to 210 °C; that for `O=C(NCCO)c1cccc(-c2cccc3nn(Cc4cccc(Cl)c4)cc23)c1`, 202 to 203 °C.
Compound `Cc1ccc(OC2COc3ccc(OCc4ccc5ccccc5n4)cc3C2O)cn1` (centres undefined) gave a melting point of 134 to 136 °C.
The result for `CCOC(=O)CCC(=O)[C@H](Cc1ccccc1)NC(=O)c1ccccc1` reads 112 to 114 °C; that for `Cc1noc(CC(=O)N(N)C(=O)c2ccco2)n1`, 169 to 171 °C; that for `C=C1CCC23OC2(C1)CC(C)C1C2CCC(O)C2(C)CCC13` (centres undefined), 125 °C.
With `CC(=O)NCc1ccc(C(C)(C)NC(=O)OCc2ccccc2)cc1`, the melting point is 132 to 135 °C.
The result for `CC(C)(O)c1cc(C(C)(C)O)cc(C(C)(C)O)c1` reads 148 to 150 °C.
`CCOC(=O)C(Cc1ccccc1)NC(=O)COc1ccc(C2=NNC(=O)NC2)cc1C` (centres undefined) came in with a melting point of 148 to 150 °C.
For `Cc1cc(C#CC2CC2)cc(C)c1Oc1ccc([N+](=O)[O-])c(Nc2ccc(C#N)cc2)n1`, the melting point lay within 188 to 192 °C.
The compound `C[C@@H](O)CNC(=O)N1CC(c2ccc(C(F)(F)F)cc2)C1` came in with a melting point of 107 to 108 °C.
With `COc1cc(C(=O)NS(=O)(=O)c2ccccc2Br)ccc1Cc1cccc2ccc(CCCCC(=O)N(C)C)cc12` the figure was 91 to 97 °C; with `COCOc1cc(Cl)ccc1-c1cc(-c2cccc(C(=O)OC)c2)c(C#N)c(N)n1`, 159 to 160 °C; with `Cc1c(SCCN2CCOCC2)ccnc1CSc1nc2cc(C(=O)O)ccc2[nH]1`, 120 to 124 °C.
Regarding `COc1cc2c(cc1OC)CC(NCC(N)=O)C2`, the melting point was in the range of 135 to 138 °C.
As to `CN(Cc1ccccc1C(F)(F)F)C1CCN(c2ccc(OC[C@@]3(C)Cn4cc([N+](=O)[O-])nc4O3)cc2)CC1`, the melting point turned out to be 190 °C.
With `C=CCN1CCN(c2cc(-c3ccccc3)c3ccc(=O)ccn23)CC1` the figure was 125 °C.
With `CCOC(=O)C1=C(C)NC(N)=C(C(=O)OCC)C1c1ccccc1C` (centres undefined) the figure was 130 °C.
